# Experimental data taken from PubChem BioAssay AID2060343 (Molecular Pharmacology Branch, DTP, NCI, 2025).
# Tested on: 138582-337-R-J1-PDC spheroids with HUVEC/MSC, viability
# Assay: Anticancer human tumor 138582-337-R-J1-PDC patient-derived Merkel cell tumor cell line growth inhibition [IpAb]
# Settings: for IC50: curve of first compound; for viability, T/C: stronger effect = lower value
# Summary of the method: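 Combinations with ipatasertib or abemaciclib were tested on tumour spheroids holding HUVEC (25%) and MSC (15%) alongside 60% malignant cells. Top concentration was at or near clinical Cmax (10 microM if undefined), descending in half-log steps.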
# [1] = second compound 0.1 µM, first compound 0.0316 µM
# [2] = second compound 0.1 µM, first compound 0.1 µM
# [3] = second compound 0.1 µM, first compound 0.316 µM
# [4] = second compound 0.1 µM, first compound 1 µM
# [5] = second compound 0.316 µM, first compound 0.0316 µM
# [6] = second compound 0.316 µM, first compound 0.1 µM
# [7] = second compound 0.316 µM, first compound 0.316 µM
# [8] = second compound 0.316 µM, first compound 1 µM
# [9] = second compound 1 µM, first compound 0.0316 µM
# [10] = second compound 1 µM, first compound 0.1 µM
# [11] = second compound 1 µM, first compound 0.316 µM
# [12] = second compound 1 µM, first compound 1 µM
# [13] = second compound 3.16 µM, first compound 0.0316 µM
# [14] = second compound 3.16 µM, first compound 0.1 µM
# [15] = second compound 3.16 µM, first compound 0.316 µM
# [16] = second compound 3.16 µM, first compound 1 µM
# [17] = second compound 10 µM, first compound 0.0316 µM
# [18] = second compound 10 µM, first compound 0.1 µM
# [19] = second compound 10 µM, first compound 0.316 µM
# [20] = second compound 10 µM, first compound 1 µM
# [21] = second compound 0.1 µM, first compound 3.16 µM
# [22] = second compound 0.1 µM, first compound 10 µM
# [23] = second compound 0.316 µM, first compound 3.16 µM
# [24] = second compound 0.316 µM, first compound 10 µM
# [25] = second compound 1 µM, first compound 3.16 µM
# [26] = second compound 1 µM, first compound 10 µM
# [27] = second compound 3.16 µM, first compound 3.16 µM
# [28] = second compound 3.16 µM, first compound 10 µM
# [29] = second compound 10 µM, first compound 3.16 µM
# [30] = second compound 10 µM, first compound 10 µM
# 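Further: spheroids exposed to compounds for seven days.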
# 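Wherever viability, T/C is given: 100% = DMSO vehicle control viability.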
compound,measurement,setting,value
CC(=O)c1c(C)c2cnc(Nc3ccc(N4CCNCC4)cn3)nc2n(C2CCCC2)c1=O + CC(C)NCC(C(=O)N1CCN(c2ncnc3c2C(C)CC3O)CC1)c1ccc(Cl)cc1,IC50,second compound 0.1 µM,> 300 nM
same,IC50,second compound 0.316 µM,> 300 nM
same,IC50,second compound 1 µM,> 300 nM
same,IC50,second compound 3.16 µM,> 300 nM
same,IC50,second compound 10 µM,< 0.949 nM
same,"viability, T/C","second compound 0.1 µM, first compound 0.000949 µM",101%
same,"viability, T/C","second compound 0.1 µM, first compound 0.003 µM",98.6%
same,"viability, T/C","second compound 0.1 µM, first compound 0.00949 µM",92.3%
same,"viability, T/C","second compound 0.1 µM, first compound 0.03 µM",94.3%
same,"viability, T/C","second compound 0.1 µM, first compound 0.0949 µM",89.2%
same,"viability, T/C","second compound 0.1 µM, first compound 0.3 µM",103%
same,"viability, T/C","second compound 0.316 µM, first compound 0.000949 µM",76.2%
same,"viability, T/C","second compound 0.316 µM, first compound 0.003 µM",74.1%
same,"viability, T/C","second compound 0.316 µM, first compound 0.00949 µM",78.6%
same,"viability, T/C","second compound 0.316 µM, first compound 0.03 µM",80.7%
same,"viability, T/C","second compound 0.316 µM, first compound 0.0949 µM",66.5%
same,"viability, T/C","second compound 0.316 µM, first compound 0.3 µM",80.6%
same,"viability, T/C","second compound 1 µM, first compound 0.000949 µM",65.5%
same,"viability, T/C","second compound 1 µM, first compound 0.003 µM",62.5%
same,"viability, T/C","second compound 1 µM, first compound 0.00949 µM",59.6%
same,"viability, T/C","second compound 1 µM, first compound 0.03 µM",52.8%
same,"viability, T/C","second compound 1 µM, first compound 0.0949 µM",65%
same,"viability, T/C","second compound 1 µM, first compound 0.3 µM",64.3%
same,"viability, T/C","second compound 3.16 µM, first compound 0.000949 µM",51%
same,"viability, T/C","second compound 3.16 µM, first compound 0.003 µM",54.5%
same,"viability, T/C","second compound 3.16 µM, first compound 0.00949 µM",54%
same,"viability, T/C","second compound 3.16 µM, first compound 0.03 µM",47.1%
same,"viability, T/C","second compound 3.16 µM, first compound 0.0949 µM",61.6%
same,"viability, T/C","second compound 3.16 µM, first compound 0.3 µM",47%
same,"viability, T/C","second compound 10 µM, first compound 0.000949 µM",45.1%
same,"viability, T/C","second compound 10 µM, first compound 0.003 µM",44.3%
same,"viability, T/C","second compound 10 µM, first compound 0.00949 µM",45%
same,"viability, T/C","second compound 10 µM, first compound 0.03 µM",38.9%
same,"viability, T/C","second compound 10 µM, first compound 0.0949 µM",37.8%
same,"viability, T/C","second compound 10 µM, first compound 0.3 µM",44.1%
COc1c(OCCCN2CCOCC2)ccc2c3n(c(=NC(=O)c4cnc(N)nc4)nc12)CCN3 + CC(C)NCC(C(=O)N1CCN(c2ncnc3c2C(C)CC3O)CC1)c1ccc(Cl)cc1,IC50,second compound 0.1 µM,46.5 nM
same,IC50,second compound 0.316 µM,27.3 nM
same,IC50,second compound 1 µM,11.8 nM
same,IC50,second compound 3.16 µM,< 3.16 nM
same,IC50,second compound 10 µM,< 3.16 nM
same,"viability, T/C","second compound 0.1 µM, first compound 0.00316 µM",81.3%
same,"viability, T/C","second compound 0.1 µM, first compound 0.01 µM",74.2%
same,"viability, T/C",[1],58.3%
same,"viability, T/C",[2],32.5%
same,"viability, T/C",[3],19.8%
same,"viability, T/C",[4],3.52%
same,"viability, T/C","second compound 0.316 µM, first compound 0.00316 µM",74.7%
same,"viability, T/C","second compound 0.316 µM, first compound 0.01 µM",63%
same,"viability, T/C",[5],49.4%
same,"viability, T/C",[6],28.9%
same,"viability, T/C",[7],16.7%
same,"viability, T/C",[8],2.34%
same,"viability, T/C","second compound 1 µM, first compound 0.00316 µM",59.3%
same,"viability, T/C","second compound 1 µM, first compound 0.01 µM",53%
same,"viability, T/C",[9],39.3%
same,"viability, T/C",[10],25.6%
same,"viability, T/C",[11],13.9%
same,"viability, T/C",[12],1.91%
same,"viability, T/C","second compound 3.16 µM, first compound 0.00316 µM",46.8%
same,"viability, T/C","second compound 3.16 µM, first compound 0.01 µM",41.7%
same,"viability, T/C",[13],33.9%
same,"viability, T/C",[14],21.5%
same,"viability, T/C",[15],13.9%
same,"viability, T/C",[16],1.61%
same,"viability, T/C","second compound 10 µM, first compound 0.00316 µM",35.6%
same,"viability, T/C","second compound 10 µM, first compound 0.01 µM",31.9%
same,"viability, T/C",[17],24.8%
same,"viability, T/C",[18],16.3%
same,"viability, T/C",[19],6.62%
same,"viability, T/C",[20],1.13%
Cc1nc(NC(=O)N2CCCC2C(N)=O)sc1-c1ccnc(C(C)(C)C(F)(F)F)c1 (stereo not given) + CC(C)NCC(C(=O)N1CCN(c2ncnc3c2C(C)CC3O)CC1)c1ccc(Cl)cc1,IC50,second compound 0.1 µM,1490 nM
same,IC50,second compound 0.316 µM,961 nM
same,IC50,second compound 1 µM,704 nM
same,IC50,second compound 3.16 µM,< 31.6 nM
same,IC50,second compound 10 µM,< 31.6 nM
same,"viability, T/C",[1],93.4%
same,"viability, T/C",[2],77.3%
same,"viability, T/C",[3],67.5%
same,"viability, T/C",[4],52.8%
same,"viability, T/C",[21],47.6%
same,"viability, T/C",[22],22.7%
same,"viability, T/C",[5],81.3%
same,"viability, T/C",[6],71.7%
same,"viability, T/C",[7],63.1%
same,"viability, T/C",[8],42.7%
same,"viability, T/C",[23],45.7%
same,"viability, T/C",[24],16.4%
same,"viability, T/C",[9],67.2%
same,"viability, T/C",[10],60.4%
same,"viability, T/C",[11],59.5%
same,"viability, T/C",[12],43.5%
same,"viability, T/C",[25],36.4%
same,"viability, T/C",[26],14.2%
same,"viability, T/C",[13],49.9%
same,"viability, T/C",[14],43.9%
same,"viability, T/C",[15],44.9%
same,"viability, T/C",[16],35.7%
same,"viability, T/C",[27],27.1%
same,"viability, T/C",[28],5.2%
same,"viability, T/C",[17],40.5%
same,"viability, T/C",[18],40%
same,"viability, T/C",[19],32.9%
same,"viability, T/C",[20],25.7%
same,"viability, T/C",[29],15.2%
same,"viability, T/C",[30],1.06%
Cn1nccc1Nc1nccc(-c2ccn(C(CO)c3ccc(Cl)c(F)c3)c(=O)c2)n1 (stereo not given) + CC(C)NCC(C(=O)N1CCN(c2ncnc3c2C(C)CC3O)CC1)c1ccc(Cl)cc1,IC50,second compound 0.1 µM,> 10000 nM
same,IC50,second compound 0.316 µM,> 10000 nM
same,IC50,second compound 1 µM,1700 nM
same,IC50,second compound 3.16 µM,158 nM
same,IC50,second compound 10 µM,< 31.6 nM
same,"viability, T/C",[1],104%
same,"viability, T/C",[2],88.8%
same,"viability, T/C",[3],91.8%
same,"viability, T/C",[4],100%
same,"viability, T/C",[21],108%
same,"viability, T/C",[22],124%
same,"viability, T/C",[5],82.8%
same,"viability, T/C",[6],82.8%
same,"viability, T/C",[7],77%
same,"viability, T/C",[8],73.5%
same,"viability, T/C",[23],75.8%
same,"viability, T/C",[24],70%
same,"viability, T/C",[9],68.2%
same,"viability, T/C",[10],70.5%
same,"viability, T/C",[11],67.6%
same,"viability, T/C",[12],51.4%
same,"viability, T/C",[25],44.8%
same,"viability, T/C",[26],17.1%
same,"viability, T/C",[13],47.4%
same,"viability, T/C",[14],55.1%
same,"viability, T/C",[15],48.8%
same,"viability, T/C",[16],38.8%
same,"viability, T/C",[27],19.9%
same,"viability, T/C",[28],4.47%
same,"viability, T/C",[17],45.9%
same,"viability, T/C",[18],47.5%
same,"viability, T/C",[19],34.2%
same,"viability, T/C",[20],22.8%
same,"viability, T/C",[29],6.51%
same,"viability, T/C",[30],1.06%
